Source: ChEMBL document CHEMBL1821597, “Copper-mediated nuclease activity of jadomycin B” (Bioorg Med Chem, 2011)
Activity calls are given as the source filed them. No cut-off for these calls is given here.

Tests used:
Nucleic Acid [1] = assay: Induction of single strand cleavage in supercoiled pDesR3 DNA at 10 uM after 3 hrs by agarose gel electrophoresis in presence of equimolar Cu(OAc)2 and NaN3; type: nucleic-acid assay
Nucleic Acid [2] = assay: Induction of single strand cleavage in laser-enhanced supercoiled pDesR3 DNA assessed as reduction in time required for single-strand break at 10 uM after 5 mins by agarose gel electrophoresis relative to control in presence of equimolar Cu(OAc)2; type: nucleic-acid assay; set-up: scale not given: the % may be the effect or the level left
Nucleic Acid [3] = assay: Induction of supercoiled pDesR3 DNA cleavage at 10 uM after 2 to 12 hrs by agarose gel electrophoresis; type: nucleic-acid assay
Nucleic Acid [4] = assay: Induction of supercoiled pDesR3 DNA cleavage after 2 to 12 hrs by agarose gel electrophoresis; type: nucleic-acid assay
Nucleic Acid [5] = assay: Induction of single strand cleavage in supercoiled pDesR3 DNA at 10 uM after 3 hrs by agarose gel electrophoresis in presence of equimolar Cu(OAc)2 and EDTA; type: nucleic-acid assay
MDA-MB-435 = assay: Cytotoxicity against human MDA-MB-435 cells; type: functional, cell-based
Nucleic Acid [6] = assay: Induction of double strand cleavage in supercoiled pDesR3 DNA at 10 uM after 2 to 12 hrs by agarose gel electrophoresis in presence of equimolar Cu(OAc)2; type: nucleic-acid assay
Nucleic Acid [7] = assay: Induction of single strand cleavage in supercoiled pDesR3 DNA at 10 uM after 2 to 12 hrs by agarose gel electrophoresis in presence of equimolar Cu(OAc)2; type: nucleic-acid assay
Nucleic Acid [8] = assay: Induction of supercoiled pDesR3 DNA cleavage assessed as half life of DNA cleavage after 2 to 12 hrs by agarose gel electrophoresis; type: nucleic-acid assay
Nucleic Acid [9] = assay: Induction of single strand cleavage in supercoiled pDesR3 DNA at 10 uM after 3 hrs by agarose gel electrophoresis in presence of equimolar Cu(OAc)2 and t-BuOH; type: nucleic-acid assay
Nucleic Acid [10] = assay: Induction of single strand cleavage in supercoiled pDesR3 DNA at 10 uM after 3 hrs by agarose gel electrophoresis in presence of equimolar Cu(OAc)2 and DMSO; type: nucleic-acid assay
Nucleic Acid [11] = assay: Binding affinity at calf thymus DNA at 10 uM by UV-Vis spectrophotometer; type: nucleic-acid assay; details: Bos taurus
Nucleic Acid [12] = assay: Induction of single strand cleavage in supercoiled pDesR3 DNA at 10 uM after 3 hrs by agarose gel electrophoresis in presence of equimolar Cu(OAc)2 and catalase; type: nucleic-acid assay
T47D = assay: Cytotoxicity against human T47D cells; type: functional, cell-based
Nucleic Acid [13] = assay: Induction of single strand cleavage in supercoiled pDesR3 DNA at 10 uM after 3 hrs by agarose gel electrophoresis in presence of equimolar Cu(OAc)2 and SOD; type: nucleic-acid assay

With `CC[C@H](C)[C@H]1C(=O)O[C@H]2c3cc(C)cc(O)c3C3=C(C(=O)c4c(O[C@H]5C[C@@H](O)[C@@H](O)[C@H](C)O5)cccc4C3=O)N12` [JADOMYCIN B] the Activity (Nucleic Acid [1]) was “inactive”, the Activity (Nucleic Acid [2]) was 98% and the Activity (Nucleic Acid [3]) was “inactive”. The EC50 (Nucleic Acid [4]) was 1.7 µM, the Activity (Nucleic Acid [5]) was “inactive” and the EC50 (MDA-MB-435) was 6.89 µM. The Activity (Nucleic Acid [6]) was “inactive”, the Activity (Nucleic Acid [7]) was “Active” and the T1/2 (Nucleic Acid [8]) was 45 min. For the same compound, the Activity (Nucleic Acid [9]) was “inactive”, the Activity (Nucleic Acid [10]) was “inactive” and the Activity (Nucleic Acid [11]) was “inactive”. The Activity (Nucleic Acid [12]) was “inactive”, the EC50 (T47D) was 9.92 µM and the Activity (Nucleic Acid [13]) was “inactive”.
